According to PubChem BioAssay (NCI):
“And” between values parts separate entries of the source, which are not always exact repeats. Equal entries are not always repeated.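 96-well plates; 48 h exposure; 5 concentrations. Endpoints by linear interpolation between flanking doses. Not reached: highest tested concentration assigned. GI50 = concentration required for 50% inhibition of growth. The concentration for full growth arrest is given as TGI.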

Assays:
Assay in all cases: NCI-60 cell line screen, 48 h
[1] = test system: LOX IMVI melanoma
[2] = test system: IGROV1 ovarian
[3] = test system: SR leukemia
[4] = test system: HL-60(TB) leukemia
[5] = test system: K-562 leukemia
[6] = test system: SF-295 CNS
[7] = test system: HOP-62 NSCLC
[8] = test system: A549 NSCLC
[9] = test system: HOP-92 NSCLC
[10] = test system: KM12 colon

Compound	GI50 [1]	TGI [1]	GI50 [2]	TGI [2]	GI50 [3]	TGI [3]	GI50 [4]	TGI [4]	GI50 [5]	TGI [5]	GI50 [6]	TGI [6]	GI50 [7]	TGI [7]	GI50 [8]	TGI [8]	GI50 [9]	TGI [9]	GI50 [10]	TGI [10]
O=C1C=CC(=O)N1c1cccc(N2C(=O)C=CC2=O)c1	2020 nM	4.02 µM	2380 nM	5.52 µM	3070 nM	> 100 µM	1.79 µM	5.12 µM	2670 nM	7.7 µM	21200 nM	44.5 µM	16.8 µM	33.5 µM	19.3 µM	45.4 µM	1750 nM	3.78 µM	8.33 µM	22.7 µM
Cc1cc(-c2ccccn2)cc(C)c1/C=C/c1cncc(-c2nn[nH]n2)c1	> 25000 nM	> 25 µM	> 25000 nM	> 25 µM	> 25000 nM	> 25 µM	> 25 µM	> 25 µM	> 25000 nM	> 25 µM	> 25000 nM	> 25 µM	> 25 µM	> 25 µM	> 25 µM	> 25 µM	> 18400 nM	> 25 µM	> 25 µM	> 25 µM
N#Cc1cc(S(=O)(=O)Nc2nnc(-c3ccccc3)c(-c3ccccc3)n2)c(SCc2ccccc2)cc1Cl	16800 nM	32.8 µM	29700 nM	83.5 µM	27500 nM	> 100 µM	19.9 µM	44.8 µM	27200 nM	> 100 µM	24800 nM	46.5 µM	28.3 µM	83.5 µM	22.2 µM	40.7 µM	18400 nM	58.7 µM	19.2 µM	42.5 µM
CCOC(=O)C(CC/C=C\c1ccccc1)N1CCC[C@H]1C(=O)OC (some centres undefined)	–	> 100 µM	–	> 100 µM	–	> 100 µM	–	> 100 µM	–	> 100 µM	–	> 100 µM	–	> 100 µM	–	> 100 µM	–	> 100 µM	–	> 100 µM
Oc1ccc(C2c3ccccc3Oc3ccccc32)c2cccnc12	778 nM	> 100 µM	1620 nM	> 100 µM	1970 nM	> 100 µM	1.94 µM	> 100 µM	1370 nM	> 100 µM	499 nM	> 100 µM	0.979 µM	> 100 µM	1.79 µM	> 100 µM	1860 nM	98.7 µM	1.71 µM	> 100 µM
Clc1ccccc1CNc1c2ccccc2nc2ccccc12	1570 nM	5.93 µM	1880 nM	8.83 µM	1890 nM	6.99 µM	2.05 µM	9.71 µM	1480 nM	41.7 µM	1590 nM	7.31 µM	3.62 µM	12.8 µM	2.21 µM	10.7 µM	1910 nM	8.45 µM	2.03 µM	8.28 µM
CC(CN(C)C)Oc1ccccc1NC1=C(Cl)C(=O)C(Nc2ccccc2OC(C)CN(C)C)=C(Cl)C1=O (centres undefined)	183 nM	0.377 µM	580 nM	1.88 µM	265 nM	1.17 µM	0.272 µM	0.902 µM	210 nM	0.507 µM	1830 nM	3.46 µM	1.67 µM	3.07 µM	1.7 µM	3.24 µM	268 nM	0.807 µM	1.2 µM	2.57 µM
N#CC1(C#N)C2C=CC(c3coc4cccc2c34)C1(C#N)C#N (centres undefined)	–	28.7 µM	–	35.9 µM	–	7.83 µM	–	3.44 µM	–	6.22 µM	–	42.8 µM	–	46.5 µM	–	37.5 µM	–	35 µM	–	33.8 µM
CCc1ccc(C(=Nc2ccc(N(C)C(=O)CN3CCN(C)CC3)cc2)c2c(O)[nH]c3ccc(C(=O)OC)cc23)cc1	337 nM	1.63 µM	71.4 nM	1.11 µM	164 nM	0.835 µM	0.328 µM	1.01 µM	73 nM	1.12 µM	1010 nM	2.4 µM	0.51 µM	2.17 µM	0.319 µM	1.64 µM	1230 nM	2.63 µM	0.0387 µM	1.4 µM
CCn1c(-c2nonc2N)nc2c(C#CC(C)(C)O)ncc(OC[C@H]3CCCNC3)c21	17800 nM	45.6 µM	87.6 nM	23.2 µM	12000 nM	41.8 µM	10.6 µM	32 µM	11400 nM	> 89.2 µM	794 nM	22 µM	23.3 µM	72.7 µM	15.6 µM	62.3 µM	9730 nM	36.8 µM	4.54 µM	63.8 µM
COc1cc(-c2csc(NC(=O)Nc3ccc(C(F)(F)F)cc3)n2)cc(OC)c1OC	1590 nM	3.15 µM	2860 nM	13.5 µM	2390 nM	6.79 µM	3.75 µM	8.05 µM	3040 nM	> 100 µM	1660 nM	4.35 µM	2.01 µM	5.07 µM	2.74 µM	11.7 µM	1610 nM	4.73 µM	2.09 µM	7.48 µM
CN1CCN(c2ccc(NC(=O)c3cncnc3Nc3ccc(OCc4ccccn4)c(Cl)c3)cc2)CC1	3390 nM	8.46 µM	3130 nM	9.18 µM	742 nM	2.03 µM	4.11 µM	9.28 µM	778 nM	2.28 µM	5980 nM	13.1 µM	4.31 µM	10.7 µM	2.22 µM	7.71 µM	3110 nM	9.28 µM	4.16 µM	9.63 µM
O=C1/C(=C/c2ccc(Cl)cc2)CCC/C1=C\c1ccc(Cl)cc1	1690 nM	3.42 µM	4130 nM	> 100 µM	2770 nM	> 100 µM	3.56 µM	> 100 µM	3610 nM	> 100 µM	3830 nM	> 100 µM	8.1 µM	> 100 µM	3.63 µM	> 100 µM	> 100000 nM	> 100 µM	1.9 µM	3.75 µM
CCCN(CCC)c1ccc(/C=N/NC(=O)c2cccnc2)c(OC)c1	23600 nM	> 100 µM	29300 nM	> 100 µM	17100 nM	59.6 µM	22.7 µM	59.2 µM	22200 nM	> 100 µM	19000 nM	77.8 µM	31.3 µM	> 100 µM	26.6 µM	> 100 µM	13400 nM	61.8 µM	21.3 µM	68.3 µM
CCC(=O)Nc1ccc(C)c(-c2ccc(C(=O)NCC3CC3)cc2)c1	> 25000 nM	> 25 µM	> 25000 nM	> 25 µM	> 25000 nM	> 25 µM	> 25 µM	> 25 µM	> 25000 nM	> 25 µM	> 25000 nM	> 25 µM	> 25 µM	> 25 µM	> 25 µM	> 25 µM	> 25000 nM	> 25 µM	> 25 µM	> 25 µM
O=C(O/N=C1/CCC/C1=C\c1ccccc1)c1ccc(Cl)c(Cl)c1	–	> 100 µM	–	> 100 µM	–	> 100 µM	–	> 100 µM	–	> 100 µM	–	> 100 µM	–	> 100 µM	–	> 100 µM	–	> 100 µM	–	> 100 µM
Cc1ccc(NC(=O)CSc2nnc3n(Cc4ccccc4)c(=O)c4c(C)c(C(N)=O)sc4n23)cc1	> 100000 nM	> 100 µM	37000 nM	> 100 µM	16400 nM	34.2 µM	> 100 µM	> 100 µM	42500 nM	> 100 µM	26700 nM	76.6 µM	21 µM	56 µM	> 100 µM	> 100 µM	2570 nM	12.2 µM	> 100 µM	> 100 µM
CC(=[N-])N1CCC[C@@H](Nc2c3ccccc3nc3ccccc23)C1.[Cl][Pt].[NH-]CCC[NH-]	2250 nM	> 21.9 µM	577 nM	> 100 µM	445 nM	> 100 µM	2.04 µM	> 100 µM	375 nM	> 100 µM	384 nM	> 100 µM	1.72 µM	> 100 µM	0.0325 µM	> 100 µM	2210 nM	8.36 µM	2.49 µM	> 100 µM
Cc1ccc(NS(=O)(=O)c2cccc(C#N)c2)c2[nH]cc(C#N)c12	16700 nM and 14900 nM	> 100 µM	–	> 100 µM	18200 nM and 6800 nM	> 100 µM	20.1 µM and 26.8 µM	65.4 µM and > 82.2 µM	2590 nM and 5080 nM	> 100 µM	2850 nM and 2220 nM	49.7 µM and 52.9 µM	20.1 µM and 29.8 µM	96.4 µM and > 100 µM	17.9 µM and 12.7 µM	> 100 µM	7780 nM and 12800 nM	38.1 µM and 48.2 µM	> 51.5 µM and 23.2 µM	> 100 µM
